# Measured values from patent US20240190855A1 (Relay Therapeutics, Inc., priority 2021, published 2024).
# pIC50: −log10 of the molar value.
# System: CDK2-independent (SKOV3, COV504, COV644) versus CDK2-dependent (COV318, OVCAR3, HCC1569) cell lines
# Test: Cell proliferation selectivity assay (CyQUANT Direct Cell Proliferation Assay)
# Type: cell-based
# Details: mean of IC50 ratios between each CDK2-independent versus CDK2-dependent cell line; 120 hours incubation
# Experimental: Compounds described herein were also tested in cell proliferation selectivity assays. OVCAR3, HCC1569, and SKOV3 cell lines were obtained from ATCC and cultured as recommended by supplier. COV318, COV504, and COV644 cell lines were obtained from Sigma-Aldrich and were cultured as recommended by supplier. The genetic background and dependency of each cell line was determined using publicly available databases: cBioPortal and DepMap. […] All six cell lines are CDK1-dependent given that CDK1 is an essential gene. Proliferation assay was carried out by seeding cells into 384-well plates at predetermined density (ranging from 150 to 1500 cells per well) in corresponding culture media, followed by brief centrifugation at 1000×g, and culturing cells for 24 hours at 37° C., 5% CO2. The following day, compounds were serially diluted (1l-point, 3-fold dilution scheme with 20 μM as top concentration) and dispensed directly onto cells using Echo 555 acoustic liquid handler (Labcyte). The cells were incubated with the compounds at 37° C., 5% CO2 for 120 hours. Relative number of viable cells in each well was determined using CyQUANT Direct Cell Proliferation Assay Kit (Invitrogen) per manufacturers protocol. The plates were read on EnVision 2105 multimode plate reader (Perkin Elmer) using FITC filter set. Dose response curve fitting and IC50 calculation was done using Genedata Screener software. Proliferation selectivity (i.e. selectivity index) for individual compound was derived as a mean of its IC50 ratios between each CDK2-independent versus CDK2-dependent cell line.
row,Structure (SMILES),Proliferation selectivity Index
1,"CC(C)NC(=O)O[C@@H]1CC[C@H](c2cc(Nc3ncnc4ncccc34)n[nH]2)C1 (single isomer, unassigned) [Example I-4]",45.05
2,"COCc1cc2c(Nc3cc([C@H]4CC[C@@H](OC(=O)NC(C)C)C4)[nH]n3)nccn2n1 (single isomer, unassigned) [Example I-10]",24.36
3,"CC(C)NC(=O)O[C@@H]1CC[C@H](c2cc(Nc3nccc4nccn34)n[nH]2)C1 (single isomer, unassigned) [Example I-11]",24.26
4,"CC(C)NC(=O)O[C@@H]1CC[C@H](c2cc(Nc3nccn4nccc34)n[nH]2)C1 (single isomer, unassigned) [Example I-17]",21.85
5,"COCc1nc2ccnc(Nc3cc([C@@H]4CC[C@H](OC(=O)NC(C)C)C4)[nH]n3)c2s1 (single isomer, unassigned) [Example I-19]",20.52
6,"CC(C)NC(=O)O[C@H]1CC[C@@H](c2cc(Nc3ncnc4ncccc34)n[nH]2)C1 (single isomer, unassigned) [Example I-20]",20.15
7,"Cc1cc(CC(=O)Nc2cc([C@@H]3CC[C@H](Oc4nscc4C4CC4)C3)[nH]n2)on1 (single isomer, unassigned) [Example I-21]",19.98
8,"CC(C)NC(=O)O[C@@H]1CC[C@H](c2cc(Nc3ncnc4ncsc34)n[nH]2)C1 (single isomer, unassigned) [Example I-24]",19.46
9,"CC(C)NC(=O)O[C@H]1CC[C@@H](c2cc(Nc3nccc4ncsc34)n[nH]2)C1 (single isomer, unassigned) [Example I-28]",18.45
10,"COCc1cc2c(Nc3cc([C@H]4C[C@@H](OC(=O)N[C@@H](C)CC(F)(F)F)CO4)[nH]n3)nccn2n1 (single isomer, unassigned) [Example I-33]",17.57
11,"COCc1cc2c(Nc3cc([C@H]4C[C@@H](OC(=O)N[C@]5(C)CC5(F)F)CO4)[nH]n3)nccn2n1 (single isomer, unassigned) [Example I-34]",17.33
12,CC[C@H](C)NC(=O)O[C@H]1CO[C@@H](c2cc(Nc3ccc4c(n3)C(C)(C)NC4=O)n[nH]2)C1 [Example I-1],54.25
13,COCc1cc2c(Nc3cc([C@H]4C[C@@H](OC(=O)N5CCC5(C)C)CO4)[nH]n3)nccn2n1 [Example I-2],51.61
14,C[C@H](NC(=O)O[C@H]1CO[C@@H](c2cc(Nc3ccc4c(n3)C(C)(C)NC4=O)n[nH]2)C1)C1CC1 [Example I-3],45.44
15,CC1(NC(=O)O[C@H]2CO[C@@H](c3cc(Nc4ccn5nccc5n4)n[nH]3)C2)CC1 [Example I-5],32.74
16,C=C(C)c1ccncc1O[C@H]1CC[C@@H](c2cc(NC(=O)Cc3cc(C)no3)n[nH]2)C1 [Example I-6],31.48
17,CC1(NC(=O)O[C@@H]2CO[C@H](c3cc(Nc4nccc5nccn45)n[nH]3)C2)CC1 [Example I-7],27.71
18,CC1(NC(=O)O[C@H]2CO[C@@H](c3cc(Nc4ccc5nccn5n4)n[nH]3)C2)CC1 [Example I-8],27.56
19,COCc1cc2c(Nc3cc([C@H]4C[C@@H](OC(=O)N[C@@H](C)C(F)(F)F)CO4)[nH]n3)nccn2n1 [Example I-9],24.63
20,COCC1(NC(=O)O[C@@H]2CO[C@H](c3cc(NC(=O)c4cc(COC(F)(F)F)nn4C)n[nH]3)C2)CC1 [Example I-12],23.98

row,Structure (SMILES),Proliferation selectivity Index
1,C[C@H](NC(=O)O[C@@H]1CO[C@H](c2cc(NC(=O)c3cc(COC(F)(F)F)nn3C)n[nH]2)C1)C1CC1 [Example I-13],23.74
2,Cn1ncc2cnc(Nc3cc([C@H]4C[C@@H](OC(=O)NC5(C)CC5)CO4)[nH]n3)cc21 [Example I-14],23.53
3,COCc1cc2c(Nc3cc([C@H]4C[C@@H](OC(=O)NC5(CC(F)(F)F)CC5)CO4)[nH]n3)nccn2n1 [Example I-15],23.43
4,COCc1nc2ccnc(Nc3cc([C@H]4C[C@@H](OC(=O)NC(C)C)CO4)[nH]n3)c2s1 [Example I-16],22.96
5,Cn1nc(COC(F)(F)F)cc1C(=O)Nc1cc([C@@H]2C[C@H](OC(=O)NC3(C)CC3)CO2)[nH]n1 [Example I-18],21.63
6,CC(C)NC(=O)OC[C@H]1C[C@@H](c2cc(Nc3nccc4ncsc34)n[nH]2)C1 [Example I-22],19.69
7,COCc1cc2c(Nc3cc([C@H]4C[C@@H](OC(=O)N[C@H](C)C(F)(F)F)CO4)[nH]n3)nccn2n1 [Example I-23],19.67
8,Cn1nc(COC(F)(F)F)cc1C(=O)Nc1cc([C@@H]2C[C@H](OC(=O)NC3(C)COC3)CO2)[nH]n1 [Example I-25],18.78
9,COCc1cc2c(Nc3cc([C@@H]4C[C@H](Oc5nncn5C(C)(C)C)CO4)[nH]n3)nccn2n1 [Example I-26],18.65
10,CC(C)NC(=O)OC[C@H]1C[C@@H](c2cc(NC(=O)c3cc(COC(F)(F)F)nn3C)n[nH]2)C1 [Example I-27],18.56
11,COCc1cc2c(Nc3cc([C@H]4C[C@@H](OC(=O)NC(C)(C)C#N)CO4)[nH]n3)nccn2n1 [Example I-29],18.45
12,Cn1nc(OCC(F)F)cc1C(=O)Nc1cc([C@H]2C[C@@H](OC(=O)NC34CC(C3)C4)CO2)[nH]n1 [Example I-30],18.27
13,CC1(NC(=O)O[C@H]2CO[C@@H](c3cc(Nc4nccc5nccn45)n[nH]3)C2)CC1 [Example I-31],17.88
14,CC(C)NC(=O)O[C@@H]1CO[C@H](c2cc(Nc3nccc4ncsc34)n[nH]2)C1 [Example I-32],17.60
15,CCC1(NC(=O)O[C@H]2CO[C@@H](c3cc(Nc4nccn5nc(COC)cc45)n[nH]3)C2)CC1 [Example I-35],17.20
16,C#CC1(NC(=O)O[C@H]2CO[C@@H](c3cc(Nc4nccn5nc(COC)cc45)n[nH]3)C2)CC1 [Example I-36],16.79
17,COCc1cc2c(Nc3cc([C@H]4C[C@@H](Oc5nncn5C5(C(F)(F)F)CC5)CO4)[nH]n3)nccn2n1 [Example I-37],16.55
18,COCc1cc2c(Nc3cc([C@H]4C[C@@H](OC(=O)NC(C)C)CO4)[nH]n3)nccn2n1 [Example I-38],16.55
19,CC(C)n1cnnc1OC[C@H]1C[C@@H](c2cc(Nc3nccn4nccc34)n[nH]2)C1 [Example I-39],16.17
20,COCc1cc2c(Nc3cc([C@@H]4C[C@H](Oc5nncn5C5(C)CC5)CO4)[nH]n3)nccn2n1 [Example I-40],16.06

# Target: T1, CDK2/Cyclin E complex (Homo sapiens, UniProt P24941)
# T1 construct: purchased Eurofins 14-475
# Test: CDK2/Cyclin E fluorescence-based microfluidic mobility shift assay (CDK2 Biochemical Caliper Assay)
# Details: read-out: Biochemical CDK2/CyclinE Caliper IC50
# Outline: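 Microfluidic mobility-shift readout after EDTA termination measured phosphorylation of fluorescent FL Peptide 18 (1.5 uM final) in a 20 hr room-temperature reaction. Compounds were tested at 11 concentrations (3-fold).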
row,Structure (SMILES),pIC50
1,COC12CC(NC(=O)O[C@@H]3CO[C@H](c4cc(NC(=O)c5cc(COC(F)(F)F)nn5C)n[nH]4)C3)(C1)C2 [Example 911],≥ 7.00
2,Cn1nc(COC(F)(F)F)cc1C(=O)Nc1cc([C@@H]2C[C@H](OC(=O)NC34CC(C#N)(C3)C4)CO2)[nH]n1 [Example 912],≥ 7.00
3,COC12CC(NC(=O)O[C@H]3CO[C@@H](c4cc(NC(=O)c5cc(COC(F)(F)F)nn5C)n[nH]4)C3)(C1)C2 [Example 913],≥ 7.00
4,Cn1nc(COC(F)(F)F)cc1C(=O)Nc1cc([C@H]2C[C@@H](OC(=O)NC34CC(C#N)(C3)C4)CO2)[nH]n1 [Example 914],≥ 7.00
5,C[C@@H](NC(=O)O[C@H]1CO[C@@H](c2cc(NC(=O)c3cc(OCC(F)F)nn3C)n[nH]2)C1)C1CC1 [Example 915],≥ 7.00
6,C[C@H](NC(=O)O[C@H]1CO[C@@H](c2cc(NC(=O)c3cc(OCC(F)F)nn3C)n[nH]2)C1)C1CC1 [Example 916],≥ 7.00
7,C[C@@H](NC(=O)O[C@H]1CO[C@@H](c2cc(NC(=O)c3cc(OCC(F)(F)F)nn3C)n[nH]2)C1)C1CC1 [Example 917],≥ 7.00
8,C[C@H](NC(=O)O[C@H]1CO[C@@H](c2cc(NC(=O)c3cc(OCC(F)(F)F)nn3C)n[nH]2)C1)C1CC1 [Example 918],≥ 7.00
9,C[C@H](NC(=O)O[C@@H]1CO[C@H](c2cc(NC(=O)c3cc(OCC(F)F)nn3C)n[nH]2)C1)C1CC1 [Example 919],≥ 7.00
10,C[C@H](NC(=O)O[C@@H]1CO[C@H](c2cc(NC(=O)c3cc(OCC(F)(F)F)nn3C)n[nH]2)C1)C1CC1 [Example 920],≥ 7.00
11,COCc1cn2c(Nc3cc([C@@H]4C[C@H](OC(=O)NC5(C)CC5)CO4)[nH]n3)nccc2n1 [Example 921],≥ 7.00
12,CC1(NC(=O)O[C@@H]2CO[C@H](c3cc(Nc4nccn5nc(COC(F)(F)F)cc45)n[nH]3)C2)CC1 [Example 922],≥ 7.00
